Measured values published in US20170022171A1, “2,5-DISUBSTITUTED CYCLOPENTANECARBOXYLIC ACIDS AND THEIR USE” (Bayer Pharma Aktiengesellschaft, priority 2014, published 2017).

Key:
Type in all cases: biochemical
MMP-7 = target: T1, MMP-7 (Homo sapiens, UniProt P09237); assay: In vitro MMP-7 inhibition test
T1 construct: purchased R&D Systems 907-MP
T1 sequence (P09237 95-267): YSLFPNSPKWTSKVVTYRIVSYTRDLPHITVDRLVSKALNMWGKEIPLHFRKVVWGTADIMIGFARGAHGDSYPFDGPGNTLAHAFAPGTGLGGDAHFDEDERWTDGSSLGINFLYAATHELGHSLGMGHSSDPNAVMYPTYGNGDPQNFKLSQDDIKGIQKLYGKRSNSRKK
Text: (§1) The MMP-mediated amidolytic cleavage of a suitable peptide substrate leads to an increase in fluorescent light here too. The signal intensity of the fluorescent light is directly proportional to the enzyme activity. The active concentration of a test compound at which half the enzyme is inhibited (50% signal intensity of the fluorescent light) is reported as the IC50 value.
Recombinant MMP-7 (from R&D Systems, 907-MP) is chemically activated in accordance with the manufacturer's instructions using APMA. 1 μl of the test compound to be analysed (as a solution in DMSO, suitable concentrations, for example, 1 nM to 30 μM) is pipetted into 24 μl of activated enzyme (final concentration, for example, 0.5 nM) in reaction buffer (50 mM Tris/HCl pH 7.5, 10 mM CaCl2, 150 mM NaCl, 0.05% Brij®-35) in a white 384-hole microtiter plate (MTP). The enzymatic reaction is started by adding the intramolecularly quenched Mca-Pro-Leu-Gly-Leu-Dpa(Dnp)-Ala-Arg-NH2 substrate (final concentration, for example, 10 μM; R&D Systems, ES-001), so as to result in a total test volume of […] The course of the MMP-7 reaction is measured by measuring the fluorescence intensity (excitation 320 nm, emission 410 nm) over a suitable period of time (for example over 120 min at a temperature of 32° C.).

[1] = target: T2, human macrophage elastase (HME/hMMP-12) (Homo sapiens, UniProt P39900); assay: In vitro HME inhibition test (standard or high-sensitivity); conditions: in some cases mean values
T2 construct: 0.5 nM HME; purchased R&D Systems 917-MP
T2 sequence (P39900 106-470): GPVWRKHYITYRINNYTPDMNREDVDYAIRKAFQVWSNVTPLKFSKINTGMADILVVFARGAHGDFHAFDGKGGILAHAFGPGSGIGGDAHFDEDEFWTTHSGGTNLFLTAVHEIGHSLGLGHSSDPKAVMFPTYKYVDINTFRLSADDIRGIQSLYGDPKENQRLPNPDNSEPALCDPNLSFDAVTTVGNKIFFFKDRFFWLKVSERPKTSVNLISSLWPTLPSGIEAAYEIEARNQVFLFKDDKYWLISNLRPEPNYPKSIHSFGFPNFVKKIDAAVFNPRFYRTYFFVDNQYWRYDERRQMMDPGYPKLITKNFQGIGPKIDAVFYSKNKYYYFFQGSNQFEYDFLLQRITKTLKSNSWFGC
Method in brief: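 Fluorogenic assay: 0.5 nM autoactivated HME with 5 µM Mca-Pro-Leu-Gly-Leu-Glu-Glu-Ala-Dap(Dnp)-NH2 in HEPES pH 7.4 buffer (NaCl, CaCl2, ZnCl2, EDTA, Brij), 2 h at 37 °C; ex 323/em 393 nm. IC50 from fluorescence versus concentration. High-sensitivity format: ~0.05 nM enzyme, ~16 h incubation.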

MMP-14 = target: T3, MMP-14 (Homo sapiens, UniProt P50281); assay: In vitro MMP-14 inhibition test
T3 construct: purchased R&D Systems 918-MP
Text: as §1
Recombinant MMP-14 (from R&D Systems, 918-MP) is enzymatically activated in accordance with the manufacturer's instructions using recombinant furin (from R&D Systems, 1503-SE). 1 μl of the test compound to be analysed (as a solution in DMSO, suitable concentrations e.g. 1 nM to 30 μM) is pipetted into 24 μl of activated enzyme (final concentration e.g. 0.5 nM) in reaction buffer (50 mM Tris/HCl pH 7.5, 10 mM CaCl2, 150 mM NaCl, 0.05% Brij®-35) in a white 384-hole microtiter plate (MTP). The enzymatic reaction is started by adding the intramolecularly quenched Mca-Lys-Pro-Leu-Gly-Leu-Dpa(Dnp)-Ala-Arg-NH2 substrate (final concentration, for example, 5 μM; R&D Systems, ES-010), so as to result in a total test volume of 50 The course of the MMP-14 reaction is measured by measuring the fluorescence intensity (excitation 320 nm, emission 410 nm) over a suitable period of time (for example over 120 min at a temperature of 32° C.).

Molecule | IC50 (MMP-7) [nM] | IC50 [1] [nM] | IC50 (MMP-14) [nM]
O=C(O)[C@H]1[C@H](Cn2nnc3ccc(C(F)(F)F)cc3c2=O)CC[C@@H]1C(=O)c1ccc(OCc2ccc(F)cc2)cc1 (racemic) [Example 12, (+/−)-(1RS,2RS,5SR)-2-{4-[(4-Fluorobenzyl)oxy]benzoyl}-5-{[4-oxo-6-(trifluoromethyl)-1,2,3-benzotriazin-3(4H)-yl]methyl}cyclopentanecarboxylic acid] | 160 | 0.019 | 78
Cc1cccc(COc2ccc(C(=O)[C@H]3CC[C@@H](Cn4nnc5ccc(C(F)(F)F)cc5c4=O)[C@@H]3C(=O)O)cc2)c1 (racemic) [Example 15, (+/−)-(1RS,2RS,5SR)-2-{4-[(3-Methylbenzyl)oxy]benzoyl}-5-{[4-oxo-6-(trifluoromethyl)-1,2,3-benzotriazin-3(4H)-yl]methyl}cyclopentanecarboxylic acid] | 120 | 0.05 | 180
CCCCCSc1ccc(C(=O)[C@H]2CC[C@@H](Cn3nnc4ccc(C(F)(F)F)cc4c3=O)[C@@H]2C(=O)O)cc1 (racemic) [Example 88, (+/−)-(1RS,2SR,5RS)-2-{[4-Oxo-6-(trifluoromethyl)-1,2,3-benzotriazin-3(4H)-yl]methyl}-5-[4-(pentylsulphanyl)benzoyl]cyclopentanecarboxylic acid] | 120 | 0.023 | 440
COc1cccc(COc2ccc(C(=O)[C@H]3CC[C@@H](Cn4nnc5ccc(C)cc5c4=O)[C@@H]3C(=O)O)cc2)c1 (racemic) [Example 106, (+/−)-(1RS,2RS,5SR)-2-{4-[(3-Methoxybenzyl)oxy]benzoyl}-5-[(6-methyl-4-oxo-1,2,3-benzotriazin-3(4H)-yl)methyl]cyclopentanecarboxylic acid] | 190 | 0.078 | 180
Cc1cccc(COc2ccc(C(=O)[C@@H]3CC[C@H](Cn4nnc5ccc(C(F)(F)F)cc5c4=O)[C@H]3C(=O)O)cc2)c1 (single isomer, unassigned) [Example 16, (+)-(1RS,2RS,5SR)-2-{4-[(3-Methylbenzyl)oxy]benzoyl}-5-{[4-oxo-6-(trifluoromethyl)-1,2,3-benzotriazin-3(4H)-yl]methyl}cyclopentanecarboxylic acid] | 190 | 0.064 | 320
O=C(O)[C@@H]1[C@@H](Cn2nnc3ccc(C(F)(F)F)cc3c2=O)CC[C@H]1C(=O)c1ccc(OCc2cccc(C(F)(F)F)c2)cc1 (single isomer, unassigned) [Example 19, (+)-(1RS,2SR,5RS)-2-{[4-Oxo-6-(trifluoromethyl)-1,2,3-benzotriazin-3(4H)-yl]methyl}-5-(4-{[3-(trifluoromethyl)benzyl]oxy}benzoyl)cyclopentanecarboxylic acid] | 1600 | 0.027 | 3000
O=C(O)[C@@H]1[C@@H](Cn2nnc3ccc(C(F)(F)F)cc3c2=O)CC[C@H]1C(=O)c1ccc(OCc2ccc(Cl)cc2)cc1 (single isomer, unassigned) [Example 25, (+)-(1RS,2RS,5SR)-2-{4-[(4-Chlorobenzyl)oxy]benzoyl}-5-{[4-oxo-6-(trifluoromethyl)-1,2,3-benzotriazin-3(4H)-yl]methyl}cyclopentanecarboxylic acid] | 120 | 0.013 | 230
CCCCOc1ccc(C(=O)[C@@H]2CC[C@H](Cn3nnc4ccc(C(F)(F)F)cc4c3=O)[C@H]2C(=O)O)cc1 (single isomer, unassigned) [Example 67, (+)-(1RS,2RS,5SR)-2-(4-Butoxybenzoyl)-5-{[4-oxo-6-(trifluoromethyl)-1,2,3-benzotriazin-3(4H)-yl]methyl}cyclopentanecarboxylic acid] | 120 | 0.015 | 96
COc1cccc(COc2ccc(C(=O)[C@@H]3CC[C@H](Cn4nnc5ccc(C)cc5c4=O)[C@H]3C(=O)O)cc2)c1 (single isomer, unassigned) [Example 107, (+)-(1RS,2RS,5SR)-2-{4-[(3-Methoxybenzyl)oxy]benzoyl}-5-[(6-methyl-4-oxo-1,2,3-benzotriazin-3(4H)-yl)methyl]cyclopentanecarboxylic acid] | 200 | 0.035 | 290
(+)-(1RS,2RS,5SR)-2-{4-[Cyclohexyl)methyl)sulphanyl]benzoyl}-5-{[4-oxo-6-(trifluoromethyl)-1,2,3-benzotriazin-3(4H)-yl]methyl}cyclopentanecarboxylic acid [Example 86] | 1000 | 0.018 | 3900

More lines, in order of falling IC50 (MMP-7), values ahead:

IC50 (MMP-7) [nM] | IC50 [1] [nM] | IC50 (MMP-14) [nM] | Molecule
910 | 0.11 | 1000 | O=C(O)[C@H]1[C@H](Cn2nnc3ccc(C(F)(F)F)cc3c2=O)CC[C@@H]1C(=O)c1ccc(OCc2cccc(C(F)(F)F)c2)cc1 (racemic) [Example 18, (+/−)-(1RS,2SR,5RS)-2-{[4-Oxo-6-(trifluoromethyl)-1,2,3-benzotriazin-3(4H)-yl]methyl}-5-(4-{[3-(trifluoromethyl)benzyl]oxy}benzoyl)cyclopentanecarboxylic acid]
260 | 0.037 | 2400 | O=C(O)[C@@H]1[C@@H](Cn2nnc3ccc(C(F)(F)F)cc3c2=O)CC[C@H]1C(=O)c1ccc(OCCC2CCCC2)cc1 (single isomer, unassigned) [Example 55, (+)-(1RS,2RS,5SR)-2-[4-(2-Cyclopentylethoxy)benzoyl]-5-{[4-oxo-6-(trifluoromethyl)-1,2,3-benzotriazin-3(4H)-yl]methyl}cyclopentanecarboxylic acid]
180 | 0.027 | 1300 | CCCCCCOc1ccc(C(=O)[C@@H]2CC[C@H](Cn3nnc4ccc(C(F)(F)F)cc4c3=O)[C@H]2C(=O)O)cc1 (single isomer, unassigned) [Example 58, (+)-(1RS,2RS,5SR)-2-[4-(Hexyloxy)benzoyl]-5-{[4-oxo-6-(trifluoromethyl)-1,2,3-benzotriazin-3(4H)-yl]methyl}cyclopentanecarboxylic acid]
140 | 0.024 | 88 | O=C(O)[C@@H]1[C@@H](Cn2nnc3ccc(C(F)(F)F)cc3c2=O)CC[C@H]1C(=O)c1ccc(OCC2CCCC2)cc1 (single isomer, unassigned) [Example 44, (+)-(1RS,2RS,5SR)-2-[4-(Cyclopentylmethoxy)benzoyl]-5-{[4-oxo-6-(trifluoromethyl)-1,2,3-benzotriazin-3(4H)-yl]methyl}cyclopentanecarboxylic acid]
120 | 0.018 | 150 | O=C(O)[C@@H]1[C@@H](Cn2nnc3ccc(C(F)(F)F)cc3c2=O)CC[C@H]1C(=O)c1ccc(OCc2ccc(F)cc2)cc1 (single isomer, unassigned) [Example 13, (+)-(1RS,2RS,5SR)-2-{4-[(4-Fluorobenzyl)oxy]benzoyl}-5-{[4-oxo-6-(trifluoromethyl)-1,2,3-benzotriazin-3(4H)-yl]methyl}cyclopentanecarboxylic acid]
31 | 0.013 | 170 | O=C(O)[C@@H]1[C@@H](Cn2nnc3ccc(C(F)(F)F)cc3c2=O)CC[C@H]1C(=O)c1ccc(OCc2cccc(N3CCOC3=O)c2)cc1 (single isomer, unassigned) [Example 35, (+)-(1RS,2RS,5SR)-2-(4-{[3-(2-Oxo-1,3-oxazolidin-3-yl)benzyl]oxy}benzoyl)-5-{[4-oxo-6-(trifluoromethyl)-1,2,3-benzotriazin-3(4H)-yl]methyl}cyclopentanecarboxylic acid]
